Drawing on patent US9593197B2, “Trigger-responsive chain-shattering polymers” (THE BOARD OF TRUSTEES OF THE UNIVERSITY OF ILLINOIS, priority 2012, dated 2017), this text covers IC50 for one compound.

The series is described as follows: MTT cytotoxicity assay before and after UV treatment. The settings on record: human, HeLa cells. (Formazan colour is commonly taken as a measure of viable cells.)

Usually IC50 stands for the midpoint of a concentration-inhibition curve. The compound `CC[C@@]1(O)C(=O)OCc2c1cc1n(c2=O)Cc2cc3cc(O)ccc3nc2-1` [HCPT, 10-hydroxycamptothecin] had an IC50 of 6.2 to 7.32 µM.
